One data set relates to MPR1-MDCK. Put plainly: MPR1-MDCK permeability, potential to cross the blood-brain barrier. The format is in vitro ADME. Conditions: for % Recovery A-B / Papp A-B: A-B direction; for % Recovery B-A / Papp B-A: B-A direction; for Efflux: efflux ratio; for Brain Penetration Classification: from A-B Papp and efflux ratio. The text has this:
A criterion for selecting an agent for proceeding to clinical trials is whether the compound crosses the blood-brain barrier. […] Fluphenazine (ICI-01175) is used as a control compound that has the potential to cross the blood-brain barrier. Table 1 summarizes the results of the test compounds for their potential to cross the blood-brain barrier.

For the next data set, the system named is RPMI 8226. The experiment in a line: Inhibition of proliferation of RPMI 8226 cells. The format is cell-based, human. To be noted: RPMI cells in vitro. The text has this:
The next set of experiments was designed to assess compounds that have low levels of brain penetration for the ability of the test compounds to inhibit cellular proliferation. An exemplary in vitro assay is to screen for the ability of the test compounds to inhibit proliferation of the B-cell neoplastic cell line RPMI 8226 (a plasmacytoma derived from a multiple myeloma patient (Matsuoka, et al., 1967, Proc. Soc. Exp. Biol. Med. 125: 1246-1250). However other cell line can be used such as, U266 (established from an IgE-secreting myeloma patient (Nilsson, et al., 1970, Clin. Exp. Immunol., 7: 477-489) and ARH77 (an EBV transformed plasma cell leukemia (Burk, et al., 1978, Cancer Res. 38: 2508-2513).
FIG. 1 is a graph depicting the effects on the test compounds on RPMI cell viability.

“Also recorded” adds a separate entry of the source. Some results are limits rather than exact numbers.

With `CNCC(=O)NCCCN1CCC(CCCN2c3ccccc3Sc3ccc(C(F)(F)F)cc32)CC1` [ICI-01259], in the data set on MPR1-MDCK, the “% Recovery A-B” value turned out to be 29%, the “Papp A-B” value is less than 0.29 ×10⁻⁶ cm/s, the “% Recovery B-A” value was determined as 39% and the “Papp B-A” value was 12.5 ×10⁻⁶ cm/s. In the data set on MPR1-MDCK, the Efflux is greater than 43; the “Brain Penetration Classification” value was “Low (A-B Papp > 3.0 and Efflux Ratio > 10: Low)”. In the data set on RPMI 8226, the “ability to inhibit proliferation of RPMI cells” value was “able to inhibit”.
`NCC(=O)NCCCN1CCC(CCCN2c3ccccc3Sc3ccc(C(F)(F)F)cc32)CC1` [ICI-01260]: in the data set with MPR1-MDCK, the “% Recovery A-B” value amounted to 55%, the “Papp A-B” value is 0.32 ×10⁻⁶ cm/s, the “% Recovery B-A” value came to 47% and the “Papp B-A” value stood at 26.4 ×10⁻⁶ cm/s. In the data set on MPR1-MDCK, the Efflux is 82; the “Brain Penetration Classification” value is “Low (A-B Papp > 3.0 and Efflux Ratio > 10: Low)”. Also, the “ability to inhibit proliferation of RPMI cells” value with RPMI 8226 (listed as ICI-1260) is recorded as “able to inhibit; also recorded: active”.

The record behind these values is patent publication US20100130457A1, “Phenothiazine Derivatives for Treatment of Asthma” (Immune Control, Inc., priority 2008, published 2010).
